US20230057130A1, “FORMULATIONS OF 19-NOR C3,3-DISUBSTITUTED C21-N-PYRAZOLYL STEROID AND METHODS OF USE THEREOF” (priority 2020, published 2023)
≈ marks a conversion by molar mass, not a printed value. Where “and” joins values, the source holds several entries; their conditions need not be identical. Identical values can stand only once. Like-named read-outs stand apart in the source and are kept apart here.

Key:
[1] = Solubility of the compound of formula (I) in aqueous media; format: physicochemical
Excerpt: The compound of formula (I) belongs in the high permeability, poor solubility drug classification (BCS 2) described in the Biopharmaceutics Classification System (BCS). In the improved widely accepted Developability Classification System (DCS) discussed by Butler and Dressman, the high permeability low solubility category is further divided into two classifications. Specifically, the ratio of the dose to the solubility of the drug in FaSSIF can be used to predict the extent of human absorption. Class 2a describes compounds that have good permeability and poor solubility with a smaller dose to solubility ratio. Class 2b describes compounds that have a higher dose to solubility ratio and likely will be incompletely absorbed unless the drug is formulated in an already solubilized form, and therefore might present a major challenge to the formulator. […] That is, even for a dose of 10 mg about only 1.2% of the dose of the drug may dissolve in a glass of water or FaSSIF. For Class 2b compounds the system predicts that particle reduction should have no impact on bioavailability. Martinez and Amidon offer: “In the case of solubility-limited absorption particle size exerts minimal effect on the fraction of drug absorbed. In this situation, fraction of drug absorbed can only be improved by enhancing drug solubility (e.g., via inclusion of surfactants in the drug formulation.) Conversely particle size exerts its greatest effect when solubility is not a problem.” (Martinez and Amidon; J. Clin. Pharmacol.; 2002; 42; 620-643). In light of the very large […] for the compound of formula (I), oral absorption of the compound of formula (I) is solubility limited, and reduction of particle size should not affect its bioavailability.

[2] = Particle size distribution by laser diffraction (Malvern Mastersizer 2000); format: physicochemical; details: for Particle Size D10 / Particle Size D50 / Particle Size D90: laser diffraction
Excerpt: As used herein, the term “particle size” or “particle size distribution (PSD)” when referring to the compound of formula (I) is a list of values that defines the relative amount, typically by mass or volume, of particles present according to size. The distribution data may be reported as cumulative distributions and/or as density distributions by volume or mass such as D(v, 0.1), D(v, 0.5) and D(v, 0.9). In various embodiments, the particle size of a compound of formula (I) may be measured using laser diffraction techniques (e.g., dispersing particles in a sample and illuminating the sample in a collimated laser-beam by scattering light over a range of angles). The large particles generate a high scattering intensity at relatively narrow angles to the incident beam, while the smaller particles produce a lower intensity signal but at much wider angles. Using an array of detectors, laser-diffraction analyzers record the pattern of scattered light produced by the sample. With the application of an appropriate model of light behavior the particle-size distribution of the sample can be determined from the scattering data, via a deconvolution step.
The particle size distribution of Compound 1 was measured using a laser diffraction method. A sample of Compound 1 was either dispersed in water or wetted and dispersed in 0.2% w/v Tween 80 in water to a final concentration spanning approximately 2.5 to 60 mg/mL. Using a Malvern Mastersizer 2000 with a Hydro 2000S sample dispersion unit the obscuration was adjusted to between 10 and 30%. The stir speed was adjusted to 2250-2500 rpm, pre-measurement delay to approximately 30 s, sample measurement time to around 10-15 s, background measurement time to around 10-15 s and the particle shape assumed to be irregular. The samples were at a concentration between 0.0032-0.0044% vol and had specific surface area between 1.65 and 2.10 m^2/g, a surface weighted mean between 2.87 and 3.64 μm, and a volume weighed mean between 3.62 and 4.67 μm. The measurements were obtained using the Mie scattering model (material refractive index=1.520, dispersant refractive index=1.330, absorption=0.001 or 0.1) with normal sensitivity.

[3] = Pharmacokinetic profile of Form C of Compound 1 (micronized and un-micronized) in rat, oral gavage; format: in vivo; details: male Sprague-Dawley rats, oral gavage 15 mg/kg; for AUClast / Cmax / Tmax: suspended in 2% aqueous PVP-VA, 15 mg/kg
Experimental: Two groups, each with three male Sprague-Dawley rats, received an oral gavage dose of Compound 1 (un-micronized Form C or micronized Form C) suspended in 2% aqueous PVP-VA at a concentration and volume intended to achieve a target dose level of 15 mg/kg.
Serial blood samples were collected from each animal at 0.25, 0.5, 1, 2, 4, 6, 8 and 24 hours after dosing. Blood samples, which were collected into tubes containing K2EDTA, were processed for plasma. Plasma samples were analyzed for Compound 1 by LC-MS/MS. Non-compartmental pharmacokinetic parameter estimates were calculated from the plasma concentration-time data for each animal. […] In Table 8 the subscripts to AUC last and inf refer to that AUC to the last sampling time point and extrapolated to infinite time, respectively.

[4] = lot used for 8 kg blend batch, 20 mg dose strength
[5] = lot used for 12 kg blend batch, 30 mg dose strength
[6] = lot used for 34.7 kg blend batch, 20 mg dose strength
[7] = lot used for 52 kg blend batch, 30 mg dose strength

| SMILES | Particle Size D10 [2] | Particle Size D50 [2] | Particle Size D90 [2] | other results |
| --- | --- | --- | --- | --- |
| C[C@@]1(O)CC[C@H]2[C@H](CC[C@@H]3[C@@H]2CC[C@]2(C)[C@@H](C(=O)Cn4cc(C#N)cn4)CC[C@@H]32)C1 [Compound 1, 1-(2-((3R,5R,8R,9R,10S,13S,14S,17S)-3-hydroxy-3,13-dimethylhexadecahydro-1H-cyclopenta[a]phenanthren-17-yl)-2-oxoethyl)-1H-pyrazole-4-carbonitrile] | – | – | – | solubility in aqueous media [1]: practically insoluble; ratio of the dose to solubility in FaSSIF ([1]; 10 mg dose): greater than 10,000; ratio of the dose to solubility in FaSSIF ([1]; 20 mg dose): > 20,000; ratio of the dose to solubility in FaSSIF ([1]; 30 mg dose): > 30,000; ratio of the dose to solubility in FaSSIF ([1]; 90 mg dose): > 90,000; ratio of the dose to solubility in FaSSIF ([1]; 100 mg dose): > 100,000; part of the dose that may dissolve in a glass of water or FaSSIF ([1]; dose of 10 mg): ~1.2%; Biopharmaceutics Classification System (BCS) classification ([1]; high permeability, poor solubility): BCS 2; solubility ([1]; water): 0.8 to 3 µg/mL (≈ 1.95 to 7.32 µM) |
| C[C@@]1(O)CC[C@H]2[C@H](CC[C@@H]3[C@@H]2CC[C@]2(C)[C@@H](C(=O)Cn4cc(C#N)cn4)CC[C@@H]32)C1 [Micronized Form C of Compound 1a] | 0.9 μm | 2.4 μm | 6.1 μm | – |
| C[C@@]1(O)CC[C@H]2[C@H](CC[C@@H]3[C@@H]2CC[C@]2(C)[C@@H](C(=O)Cn4cc(C#N)cn4)CC[C@@H]32)C1 [Micronized Form C of Compound 1b] | 0.8 μm | 2.1 μm | 5.2 μm | – |
| C[C@@]1(O)CC[C@H]2[C@H](CC[C@@H]3[C@@H]2CC[C@]2(C)[C@@H](C(=O)Cn4cc(C#N)cn4)CC[C@@H]32)C1 [Micronized Form A of Compound 1] | 1.5 μm | 4.2 μm | 11.1 μm | – |
| C[C@@]1(O)CC[C@H]2[C@H](CC[C@@H]3[C@@H]2CC[C@]2(C)[C@@H](C(=O)Cn4cc(C#N)cn4)CC[C@@H]32)C1 [Un-micronized Form C of Compound 1] | – | – | – | AUClast [3]: 979 ng·h/mL; Cmax [3]: 83.6 ng/mL; Tmax ([3]; male, Sprague-Dawley, rat, plasma, po, read-out: Tmax): 6.67 h; AUC(0-inf) ([3]; rat, plasma, extrapolated to infinite time): 854 ng·h/mL |
| C[C@@]1(O)CC[C@H]2[C@H](CC[C@@H]3[C@@H]2CC[C@]2(C)[C@@H](C(=O)Cn4cc(C#N)cn4)CC[C@@H]32)C1 [Un-micronized Form C of Compound 1d] | 5.6 μm | 16.2 μm | 37.7 μm | – |
| C[C@@]1(O)CC[C@H]2[C@H](CC[C@@H]3[C@@H]2CC[C@]2(C)[C@@H](C(=O)Cn4cc(C#N)cn4)CC[C@@H]32)C1 [Micronized Form C of Compound 1c] | 1.1 μm | 2.7 μm | 5.4 μm | – |
| C[C@@]1(O)CC[C@H]2[C@H](CC[C@@H]3[C@@H]2CC[C@]2(C)[C@@H](C(=O)Cn4cc(C#N)cn4)CC[C@@H]32)C1 [Un-micronized Form C of Compound 1a] | 3.1 μm | 11.8 μm | 27.1 μm | – |
| C[C@@]1(O)CC[C@H]2[C@H](CC[C@@H]3[C@@H]2CC[C@]2(C)[C@@H](C(=O)Cn4cc(C#N)cn4)CC[C@@H]32)C1 [Un-micronized Form C of Compound 1c] | 3.6 μm | 16.0 μm | 35.5 μm | – |
| C[C@@]1(O)CC[C@H]2[C@H](CC[C@@H]3[C@@H]2CC[C@]2(C)[C@@H](C(=O)Cn4cc(C#N)cn4)CC[C@@H]32)C1 [Micronized Form C of Compound 1d] | 1.0 μm | 2.4 μm | 4.6 μm | – |
| C[C@@]1(O)CC[C@H]2[C@H](CC[C@@H]3[C@@H]2CC[C@]2(C)[C@@H](C(=O)Cn4cc(C#N)cn4)CC[C@@H]32)C1 [Un-micronized Form C of Compound 1b] | 3.2 μm | 14.7 μm | 33.6 μm | – |
| C[C@@]1(O)CC[C@H]2[C@H](CC[C@@H]3[C@@H]2CC[C@]2(C)[C@@H](C(=O)Cn4cc(C#N)cn4)CC[C@@H]32)C1 [Micronized Form C of Compound 1] | – | 3.5 μm and 3.2 μm and 4.1 μm and 3.7 μm | 6.6 μm and 6.1 μm and 8.0 μm and 8.9 μm | Particle Size Distribution D10 [2, 4]: 1.7; Particle Size Distribution D50 [2, 4]: 3.2; Particle Size Distribution D90 [2, 4]: 6.1; Particle Size Distribution D10 [2, 5]: 1.7; Particle Size Distribution D50 [2, 5]: 3.2; Particle Size Distribution D90 [2, 5]: 6.1; Particle Size Distribution D10 [2, 6]: 1.8; Particle Size Distribution D50 [2, 6]: 3.3; Particle Size Distribution D90 [2, 6]: 6.5; Particle Size Distribution D10 [2, 7]: 2.1; Particle Size Distribution D50 [2, 7]: 4.1; Particle Size Distribution D90 [2, 7]: 8.0; AUClast [3]: 3647 ng·h/mL; Cmax [3]: 308 ng/mL; Tmax [3]: 6.00 h |
